Laboratory results: patent publication US20240325336A1, “COMBINATION THERAPIES COMPRISING OXYGEN-CONTAINING STRUCTURALLY ENHANCED FATTY ACIDS FOR TREATMENT OF NON-ALCOHOLIC STEATOHEPATITIS” (NORTHSEA THERAPEUTICS B.V., priority 2020, published 2024)
Entries after “also recorded” stand apart in the source; their conditions may differ.

How the values were obtained:
[1] = CDAA/high-fat diet NASH mouse model: relative body weight and liver weight; format: in vivo; settings: CDAA-HFD mice, 8 weeks QD; for liver weight: compared to untreated vehicle group (FIG. 1B)
Source text: (§1) Although the widely used methionine-choline deficient (MCD) diet consistently reproduces severe NASH-like hepatic inflammation and fibrosis in mice, it is also associated with severe weight-loss (loss of both skeletal muscle and fat mass). This is associated with an increased risk of death which presents major problems for long-term fibrogenesis experiments. […] In the current study, male mice (strain C57BI/6JRj) were fed choline deficient high-fat diets (45% of total calories from fat; “CDAA/high-fat” or “CDAA-HFD”). The NASH inducing diet was instigated 6 weeks prior to the commencement of administration of active agents in order to evaluate treatment and reversal of NASH parameters. The NASH inducing CDAA-HFD was continued for the 8 weeks of administration of the indicated active agents and combinations thereof.
(§2) The aim of this study was to evaluate the effects of 8 weeks of administration of Compound A, OCA, semaglutide, and firsocostat alone and in combination on metabolic parameters, hepatic pathology, and on NAFLD Activity Score including Fibrosis Stage in male CDAA-HFD mice.
(§3) Prior to administration of the activate agents, animals were randomized into treatment groups based on body weight. A baseline group (n=12) was terminated at study start after 6 weeks on the CDAA-HFD diet. CDAA-HFD fed mice (n=10-12 per group) received daily per oral (PO) treatment with vehicle, Compound A (112 mg/kg), OCA (30 mg/kg), semaglutide (30 nmol/kg SC), firsocostat (5 mg/kg), Compound A+Semaglutide (112 mg/kg+30 nmol/kg), Compound A+OCA (112 mg/kg+30 mg/kg), and Compound A+firsocostat (112 mg/kg+5 mg/kg) for 8 weeks. Terminal liver biopsy were analyzed for histopathological scores. Terminal quantitative endpoints included plasma/liver biochemistry and liver histomorphometry.

male CDAA-HFD mice [2] = test: CDAA/high-fat diet NASH mouse model: plasma triglycerides and total cholesterol; format: in vivo; settings: 8 weeks QD, compared to untreated vehicle group (FIG. 3A)
Source text: as §1, §2
Prior to administration of the activate agents, animals were randomized into treatment groups based on body weight. […] Terminal liver biopsy were analyzed for histopathological scores. Terminal quantitative endpoints included plasma/liver biochemistry and liver histomorphometry.

male CDAA-HFD mice [3] = test: CDAA/high-fat diet NASH mouse model: liver total cholesterol and triglycerides; format: in vivo; settings: 8 weeks QD; for relative levels of liver total cholesterol (normalized to liver weight): compared to untreated vehicle group (FIG. 4A); for relative levels of liver triglycerides (normalized to liver weight): compared to untreated vehicle group (FIG. 4B)
Source text: as §1, §2, §3

male CDAA-HFD mice [4] = test: CDAA/high-fat diet NASH mouse model: hepatic steatosis (H&E image analysis, steatosis score); format: in vivo; settings: 8 weeks QD; for percentage of hepatocytes with lipid droplets: compared to untreated vehicle group (FIG. 5B); for steatosis scores: compared to untreated vehicle group (FIG. 6); for hepatic steatosis area (relative liver lipids): compared to untreated vehicle group (FIG. 5A)
Source text: as §1, §3
(§4) Liver samples stained with Hematoxylin and Eosin (H&E) or Picro Sirius Red (PSR) were scored for NAS components (steatosis, lobular inflammation, and ballooning degeneration) and fibrosis stage respectively using the clinical criteria outlined by Kleiner et al., Hepatology, 2005; 41. Total NAS represents the sum of scores for steatosis, inflammation, and ballooning, and ranges from 0-8.
(§5) NAS and fibrosis stage was determined by deep learning applications developed by Gubra (Denmark) using the VIS software (Visiopharm®, Denmark) for a more accurate and objective method for staging disease in DIO-NASH mouse models.
(§6) Scanned H&E stained slides were analyzed in several steps: • 1. Tissue detection at low magnification, followed by deep learning-based detection of portal triads and central veins at 10× magnification. • 2. Another deep learning application detected nuclei of hepatocytes with lipid droplets, hepatocytes without lipids, ballooned hepatocytes, and inflammatory cells at 20× magnification. Inflammatory foci were defined as a cluster of >3 inflammatory cells. • 3. The inflammation score of the liver tissue sample was the average score for all 20× fields.
Steatosis score was calculated as percentage of hepatocytes with lipid droplets.
Hepatic steatosis area (relative liver lipids) was quantified on H&E stained slides by image analysis using the VIS software (Visiopharm®, Denmark). VIS protocols are designed to analyze the virtual slides in two steps: • 1. Tissue detection at low magnification (1× objective); and • 2. Detection of steatosis and tissue at high magnification (20× objective).
The quantitative estimates of steatosis were calculated as an area fraction as follows: […]

male CDAA-HFD mice [5] = test: CDAA/high-fat diet NASH mouse model: hepatic inflammation and NAFLD activity score; format: in vivo; settings: 8 weeks QD; for NAFLD activity scores (NAS): compared to untreated vehicle group (FIG. 8B); for number of inflammatory cells (per mm^2): compared to untreated vehicle group and to baseline levels (FIG. 7A); for inflammatory foci (per mm^2): compared to untreated vehicle group and to baseline levels (FIG. 7B)
Source text: as §1, §3, §4, §5, §6

male CDAA-HFD mice [6] = test: CDAA/high-fat diet NASH mouse model: hepatic fibrosis markers (hydroxyproline, galectin-3, PSR, α-SMA); format: in vivo; settings: 8 weeks QD; for galectin-3 hepatic fractional area: compared to untreated vehicle group (FIG. 9B); for hepatic fibrotic area determined by PSR staining: compared to untreated vehicle group (FIG. 10A); for sinusoidal fibrotic area (PSR): compared to untreated vehicle group (FIG. 10B)
Source text: as §1, §3
Scanned PSR stained slides were analyzed in several steps: • 1. Tissue detection at low magnification, followed by deep learning-based detection of portal triads and central veins at 10× magnification. Periportal zone was defined as 100 μm around the portal triads. • 2. Fibrosis fibers were detected using the linear Bayesian image analysis method in the periportal and sinusoidal zones. • 3. Bridging was detected using threshold image analysis based on a polynomial local linear filter feature. • 4. Different measures of size, shape and connectivity form both fibrosis and bridging fibrosis in the two zoned were used in a XGBoost classifier to predict fibrosis stage.
Immunohistochemistry (IHC)-positive staining was quantified by image analysis using the VIS software (Visiopharm®, Denmark) using two steps: • 1. Detection of tissue at low magnification (1× objective), excluding the liver capsule; and • 2. Detection of IHC-positive staining.
The quantitation of IHC-positive staining is calculated as an area fraction as follows: […]
IHC factional area quantification was assessed for galectin-3, collagen 1A1, and α-smooth muscle actin.
Hepatic factional area assessment with picrosirius red stain was determined using the same methods.
Hepatic fibrotic area was determined by staining with picrosirus red (PSR), which binds collagen, and histological quantitative assessment.

rodent NASH models = settings: APOE*3Leiden.CETP high-fat diet, ob/ob AMLN, STAM and CDAA/high-fat diet mouse models; WO2019111048; cited from earlier work
APOE*3Leiden.CETP mice = settings: WO2016173923A1, cited from earlier work

Row | Molecule | liver weight [1] | relative levels of liver total cholesterol (normalized to liver weight) (male CDAA-HFD mice [3]) | relative levels of liver triglycerides (normalized to liver weight) (male CDAA-HFD mice [3]) | percentage of hepatocytes with lipid droplets (male CDAA-HFD mice [4]) | steatosis scores (male CDAA-HFD mice [4]) | NAFLD activity scores (NAS) (male CDAA-HFD mice [5]) | number of inflammatory cells (per mm^2) (male CDAA-HFD mice [5]) | inflammatory foci (per mm^2) (male CDAA-HFD mice [5]) | galectin-3 hepatic fractional area (male CDAA-HFD mice [6]) | hepatic fibrotic area determined by PSR staining (male CDAA-HFD mice [6]) | sinusoidal fibrotic area (PSR) (male CDAA-HFD mice [6]) | hepatic steatosis area (relative liver lipids) (male CDAA-HFD mice [4]) | also measured
1 | CC/C=C\C/C=C\C/C=C\C/C=C\C/C=C\CCCCOC(CC)C(=O)O (centres unmarked) [Compound A, 2-((5Z,8Z,11Z,14Z,17Z)-icosa-5,8,11,14,17-pentaenyloxy)butanoic acid] | decreased | significant decrease | significant decrease | significantly decreased | decreased | significantly decreased | significant decrease; also recorded: below the baseline level | significant decrease; also recorded: below the baseline level | significantly decreased | significantly decreased | Neither compound alone had a significant effect | – | plasma triglycerides (male CDAA-HFD mice [2]): significantly decreased; hepatic area expressing α-SMA (male CDAA-HFD mice [6]; compared to untreated vehicle group (FIG. 11B)): neither Compound A nor OCA significantly affecting; effect on aspects of NASH (hepatic steatosis, inflammation, fibrosis) (rodent NASH models): address multiple aspects of NASH, including hepatic steatosis, inflammation, and fibrosis
2 | CC/C=C\C/C=C\C/C=C\C/C=C\C/C=C\CCCCSC(CC)(CC)C(=O)O [Compound N, 2-ethyl-2-((5Z,8Z,11Z,14Z,17Z)-icosa-5,8,11,14,17-pentaenylthio)butanoic acid] | – | – | – | – | – | – | – | – | – | – | – | – | fibrosis (as measured by hydroxyproline/proline ratio) (APOE*3Leiden.CETP mice; APOE*3Leiden.CETP mice): effective in reducing fibrosis; influx of inflammatory cells into the liver (APOE*3Leiden.CETP mice): prevented; preventing diet-induced hepatic fibrosis, compared with rosiglitazone (APOE*3Leiden.CETP mice): superior to rosiglitazone
3 | COc1ccccc1[C@H](Cn1c(=O)n(C(C)(C)C(=O)O)c(=O)c2c(C)c(-c3ncco3)sc21)OC1CCOCC1 [firsocostat] | – | – | – | significantly decreased | decreased | significantly decreased | – | – | neither semaglutidue nor firsocostat having a significant effect | – | – | significantly greater | –
4 | semaglutide | decreased | did not significantly affect | not significantly affecting | not significantly affecting either parameter; also recorded: did not significantly affect | – | – | not having a significant effect | not having a significant effect | not having a significant effect | did not significantly affect | Neither compound alone had a significant effect | not significantly affecting either parameter; also recorded: did not have a significant effect | last recorded relative body weight ([1]; compared to vehicle (FIG. 1A)): decreased; galectin-3 hepatic fractional area (male CDAA-HFD mice [6]; listed as semaglutidue): neither semaglutidue nor firsocostat having a significant effect; galectin-3 expressing area compared to baseline (male CDAA-HFD mice [6]; vs baseline (6 weeks CDAA-HFD, before therapy) (FIG. 9B)): significantly increased
